How the values were obtained:
[1] = tested on: normal osteoblast-like hFOB 1.19 cell line; experiment: AlamarBlue cytotoxicity, RISE and nano-Ca@RISE, hFOB 1.19; format: cell-based, human; settings: for IC50: Homo sapiens
Method: (§1) Cell culture methods. The MDA-MB-231 cell line was incubated with DMEM, 1% Pen-Strep, and 10% FBS at 37° C. in 5% CO2. The hFOB 1.19 cell line was incubated with 1:1 DMEM:F-12, 0.3 mg/mL G418, and 10% FBS at 34° C. in 5% CO2. Cell passages were performed weekly at 80% of cell confluency, media was exchanged twice a week.
(§2) Cell treatments. Both cell lines were treated with RISE (control) and nano-Ca@RISE (experimental). […]. Both cell lines (MDA-MB-231 and hFOB 1.19) were seeded in 96 well plates at 2.5×10^5 cell/mL. The cells were incubated for 24 h at 37° C. (MDA-MB-231) and 34° C. (hFOB 1.19), respectively. After the initial incubation period, both cell lines were treated with 100 μL of the RISE solutions previously prepared, and incubation was performed for 24, 48, and 72 h at the respective incubation temperatures. For both cell lines, media (MDA-MB-231: DMEM, Pen-Strep) and (hFOB 1.19: DMEM, F-12, G418) were used with control groups. AlamarBlue® assay was utilized to determine cell proliferation, for this, 10% of AlamarBlue® solution in PBS was prepared. Finally, the media was removed from the 96 well plates, 100 μL of 10% AlamarBlue® solution was added, and the cells were incubated for 4 h at the same previously mentioned conditions. After the AlamarBlue® assay, the fluorescence (λexc=560 nm, λem=590 nm) was evaluated employing an Infinite M200 PRO Tecan Microplate Reader. […]. The nonlinear regression method using Graph Pad Prism 8 was applied to fit the dose-response curves (% cell live vs concentration) and determined the IC50 values for RISE.
(§3) […]. Treatments at these concentrations were carried out at 24, 48, and 72 h for RISE and nano-Ca@RISE. The cell seeding and AlamarBlue® assay were completed as described above for the IC50 determination in both cell lines. […]. All experiments were performed in triplicates and the data was statistically treated using mean, standard deviation, and the coefficient of variation percentage (% CV).
(§4) Cell culture methods for the hFOB 1.19 cell line. This cell line was grown in 1:1 mixture of Ham's F12 Medium Dulbecco's Modified Eagle's Medium accompanied with 10% FBS and 0.3 mg/ml of geneticin (G418), incubated at 34° C. in 5% CO2. Cell passage and cell treatment were performed at 80% of cell confluency. The completed growth media was exchanged every two days.
(§5) Cell seeding. The MDA-MB-231 and hFOB 1.19 cell lines were seeded in 96 well plates at a density of 2.5×10^5 cells/mL, incubation was carried out for 24 h at 37° C. for MDA-MB-231 and 34° C. for osteoblast hFOB 1.19, in 5% CO2. The experiments were conducted in triplicates, three 96 well plates were made for each treatment period (24, 48, and 72 h).
(§6) Cell treatment. To determine the half-maximal inhibitory concentration (IC50), for both cell lines, two-fold serial dilutions of RISE (0-200 μM) were prepared. To assess the relative cell live (% RCL) were employed selected […] (50, 45, 40, and 35 μM) of RISE and nano-Ca@RISE for MDA-MB-231 and hFOB 1.19 cell lines. For this, after the seeding, 100 μL of RISE and nano-Ca@RISE were used to treat the cells. The control groups were treated with just media. Both cell lines were incubated for 24, 48, and 72 h after RISE and nano-Ca@RISE solutions were added.
(§7) AlamarBlue@assay. For both cell lines, after the 24, 48, and 72 h of treatment, the media was removed from the 96 well plates. Subsequently, 100 μL of 10% AlamarBlue® solution was added and incubation was carried out for 4 h. The fluorescence (λexc=570 nm, λem=590 nm) was measured employing an Infinite M200 PRO Tecan Microplate Reader. […]. The IC50 curves and the % RCL values were plotted using the Graph Pad Prism 8 program.

[2] = as above; format: cell-based, human; settings: human, hFOB 1.19 osteoblast cells, hFOB 1.19, read-out: Relative cell viability (% RCL)
Method: as §1, §2, §3, §4, §5, §6, §7

[3] = Hydroxyapatite (HA) affinity/binding assay of 2,2′-BPBPA and nano-Ca@2,2′-BPBPA; settings: 0.5 mg/mL, HA 20 mg, PBS, duplicate

| Amount (%) bound to HA, Mean ([3]; 5 d) [%] | Amount (%) bound to HA, Mean ([3]; 6 d) [%] | Compound | IC50 ([1]; 24 h) [µM] | IC50 ([1]; 48 h) [µM] | IC50 ([1]; 72 h) [µM] | cell death ([1]; hFOB 1.19, 35 and 40 μM, 24, 48, 72 h) | % RCL ([1]; hFOB 1.19, 45 and 50 μM, time not stated) [%] | viability at 24 h, 35 µM ([2]; 35 μM, 24 h) [%] | viability at 48 h, 35 µM ([2]; 35 μM, 48 h) [%] | viability at 72 h, 35 µM ([2]; 35 μM, 72 h) [%] | viability at 24 h, 40 µM ([2]; 40 μM, 24 h) [%] | viability at 48 h, 40 µM ([2]; 40 μM, 48 h) [%] | viability at 72 h, 40 µM ([2]; 40 μM, 72 h) [%] | viability at 24 h, 45 µM ([2]; 45 μM, 24 h) [%] | viability at 48 h, 45 µM ([2]; 45 μM, 48 h) [%] | viability at 72 h, 45 µM ([2]; 45 μM, 72 h) [%] | viability at 24 h, 50 µM ([2]; 50 μM, 24 h) [%] | viability at 48 h, 50 µM ([2]; 50 μM, 48 h) [%] | viability at 72 h, 50 µM ([2]; 50 μM, 72 h) [%] |
| --- | --- | --- | --- | --- | --- | --- | --- | --- | --- | --- | --- | --- | --- | --- | --- | --- | --- | --- | --- |
|  |  | O=P(O)(O)C(O)(Cc1cccnc1)P(=O)(O)O [RISE, Monosodium risedronate hemipentahydrate] | > 200 | > 200 | > 200 | no significant cell death | ~100 | 100 ± 1 | 101 | 100 ± 2 | 100 ± 1 | 100 | 100 ± 1 | 100 ± 1 | 100 ± 1 | 99 ± 2 | 99 ± 1 | 96 ± 4 | 98 ± 1 |
| 82 | 88 | O=P(O)(O)c1ccc(-c2ccc(P(=O)(O)O)cn2)nc1 [2,2′-BPBPA, 2,2′-bipyridine-5,5′-bisphosphonic acid] |  |  |  |  |  |  |  |  |  |  |  |  |  |  |  |  |  |
